Assay results reported in ChEMBL document CHEMBL1201862, “PubChem BioAssay data set” (2004).
Activity calls are given as the source filed them. Cut-off read from the data, not from the text of the source: actives have a measured IC50 and inactives only a lower limit.

Columns and labels:
Assay type in all cases: functional
[1] = biological target: T1, Caspase-3 (Homo sapiens, UniProt P42574);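 note: Dose-response selectivity test against caspase-3 for candidate inhibitors of sentrin-specific proteases (SENPs)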
T1 sequence (P42574 whole entry): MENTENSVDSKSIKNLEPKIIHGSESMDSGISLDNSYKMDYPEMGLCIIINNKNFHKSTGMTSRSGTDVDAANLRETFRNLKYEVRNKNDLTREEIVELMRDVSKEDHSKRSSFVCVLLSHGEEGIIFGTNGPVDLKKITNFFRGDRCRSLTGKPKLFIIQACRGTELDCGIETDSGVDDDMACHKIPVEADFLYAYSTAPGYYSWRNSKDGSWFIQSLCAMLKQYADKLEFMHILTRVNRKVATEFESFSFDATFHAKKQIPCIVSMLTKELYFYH

[2] = biological target: T2, Sentrin-specific protease 7 (Homo sapiens, UniProt Q9BQF6);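 note: Luminescence-based dose-response confirmation of ultra-high-throughput screening hits, measuring inhibition of SENP7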
T2 sequence (Q9BQF6 whole entry): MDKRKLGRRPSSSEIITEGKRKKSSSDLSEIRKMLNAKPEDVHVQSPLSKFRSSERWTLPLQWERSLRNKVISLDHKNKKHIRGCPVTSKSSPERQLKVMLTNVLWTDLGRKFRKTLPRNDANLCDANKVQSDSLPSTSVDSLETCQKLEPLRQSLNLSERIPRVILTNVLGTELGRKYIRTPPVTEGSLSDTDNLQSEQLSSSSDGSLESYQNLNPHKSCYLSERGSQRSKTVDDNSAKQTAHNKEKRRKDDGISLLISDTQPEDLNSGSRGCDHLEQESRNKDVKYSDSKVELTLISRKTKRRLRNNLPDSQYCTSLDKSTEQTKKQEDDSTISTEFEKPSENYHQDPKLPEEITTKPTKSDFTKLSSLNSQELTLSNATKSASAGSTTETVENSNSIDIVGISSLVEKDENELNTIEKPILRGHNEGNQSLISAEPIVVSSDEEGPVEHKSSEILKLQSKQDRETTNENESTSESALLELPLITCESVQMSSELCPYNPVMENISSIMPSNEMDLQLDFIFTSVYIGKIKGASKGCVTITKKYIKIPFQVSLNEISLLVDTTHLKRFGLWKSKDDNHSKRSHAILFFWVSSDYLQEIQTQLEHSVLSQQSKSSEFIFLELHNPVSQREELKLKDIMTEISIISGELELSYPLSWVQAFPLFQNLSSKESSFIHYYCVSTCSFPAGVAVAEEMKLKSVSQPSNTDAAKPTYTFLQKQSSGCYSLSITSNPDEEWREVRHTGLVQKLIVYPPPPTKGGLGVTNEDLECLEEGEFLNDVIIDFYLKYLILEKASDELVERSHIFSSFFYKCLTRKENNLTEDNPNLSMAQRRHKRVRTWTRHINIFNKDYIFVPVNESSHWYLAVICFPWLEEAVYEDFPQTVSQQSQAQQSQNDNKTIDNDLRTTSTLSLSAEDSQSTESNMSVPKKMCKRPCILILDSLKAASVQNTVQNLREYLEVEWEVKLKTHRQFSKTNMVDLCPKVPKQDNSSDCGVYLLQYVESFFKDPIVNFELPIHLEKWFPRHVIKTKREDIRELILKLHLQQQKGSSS

[3] = biological target: T3, Sentrin-specific protease 8 (Homo sapiens, UniProt Q96LD8);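 note: luminescence read-out of SENP8 inhibition, dose-response confirmation following an ultra-high-throughput screen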
T3 sequence (Q96LD8 whole entry): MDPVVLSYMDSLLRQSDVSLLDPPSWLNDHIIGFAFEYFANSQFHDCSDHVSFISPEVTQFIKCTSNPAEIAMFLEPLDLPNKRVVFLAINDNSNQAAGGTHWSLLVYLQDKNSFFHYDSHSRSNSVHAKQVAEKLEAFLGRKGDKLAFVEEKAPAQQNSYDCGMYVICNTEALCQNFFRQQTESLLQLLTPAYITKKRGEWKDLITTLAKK

[4] = biological target: T4, Sentrin-specific protease 6 (Homo sapiens, UniProt Q9GZR1);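 note: Luminescence-based dose-response confirmatory assay of SENP6 inhibition, following up an ultra-high-throughput screen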
T4 sequence (Q9GZR1 whole entry): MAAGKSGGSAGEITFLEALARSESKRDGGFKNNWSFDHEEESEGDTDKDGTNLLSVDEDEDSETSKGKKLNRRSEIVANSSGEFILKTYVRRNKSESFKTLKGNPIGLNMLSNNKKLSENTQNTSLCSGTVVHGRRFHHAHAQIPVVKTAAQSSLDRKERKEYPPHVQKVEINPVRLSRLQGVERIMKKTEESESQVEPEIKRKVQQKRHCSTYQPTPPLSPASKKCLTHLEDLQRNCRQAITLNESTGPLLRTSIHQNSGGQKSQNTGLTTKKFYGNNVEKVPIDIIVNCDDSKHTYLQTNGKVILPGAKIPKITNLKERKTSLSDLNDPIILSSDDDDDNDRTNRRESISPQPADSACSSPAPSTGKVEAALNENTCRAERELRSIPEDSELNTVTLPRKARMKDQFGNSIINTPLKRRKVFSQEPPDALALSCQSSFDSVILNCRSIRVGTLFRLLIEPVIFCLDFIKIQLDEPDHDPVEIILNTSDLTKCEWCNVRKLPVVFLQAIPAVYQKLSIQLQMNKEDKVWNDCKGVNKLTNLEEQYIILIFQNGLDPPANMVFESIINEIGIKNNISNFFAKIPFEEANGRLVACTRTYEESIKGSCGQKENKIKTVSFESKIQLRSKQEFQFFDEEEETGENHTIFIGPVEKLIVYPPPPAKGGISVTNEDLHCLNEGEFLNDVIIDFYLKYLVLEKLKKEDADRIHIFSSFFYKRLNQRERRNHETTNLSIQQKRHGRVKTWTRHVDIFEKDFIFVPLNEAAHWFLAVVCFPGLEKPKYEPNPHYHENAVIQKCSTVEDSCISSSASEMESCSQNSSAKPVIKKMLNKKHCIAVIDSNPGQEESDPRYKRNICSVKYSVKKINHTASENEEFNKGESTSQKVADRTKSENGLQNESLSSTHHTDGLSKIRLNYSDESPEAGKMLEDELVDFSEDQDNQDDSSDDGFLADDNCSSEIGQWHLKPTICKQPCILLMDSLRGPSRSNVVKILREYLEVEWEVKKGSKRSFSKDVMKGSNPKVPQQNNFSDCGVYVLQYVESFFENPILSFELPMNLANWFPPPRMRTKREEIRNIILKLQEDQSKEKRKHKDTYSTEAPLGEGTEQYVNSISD

Measured: IC50

C=CCn1c(NC(=O)c2ccccc2Cl)c(C#N)c2nc3ccccc3nc21
active: [1] 5600 nM | [2] 3080 nM | [3] < 1550 nM | [4] < 1550 nM

O=c1oc2c(O)cccc2cc1-c1nc2ccccc2[nH]1
active: [1] 950 nM | [2] 955 nM | [3] 2650 nM | [4] 1260 nM

CCOC(=O)c1ccc(Nc2cc3ccccc3c(O)n2)cc1
active: [1] 8270 nM | [2] 10100 nM | [3] 13600 nM | [4] 6630 nM
